One may read the melting point as the temperature, or range, at which the solid turns liquid.

`CCCCOCCOc1ccc(-c2cnc(N3CC(C)C(C)C3)c(/C=C(\C)C(=O)O)c2)cc1` (configuration not stated) came in with a melting point of 90 to 92 °C.
Compound `c1ccc2c(c1)CN(NC1=NCCO1)C2` gave a melting point of 220 to 223 °C.
The value for `C=C(CC)CNc1cccc(-c2ccnc3c(C(=O)c4cccs4)cnn23)c1` was 79 to 82 °C; that for `CCCCCCCCCCCC(=O)Nc1ccc(O)c(C(=O)O)c1` was 201 to 205 °C; that for `Cc1ncnn1-c1ccc(N)cc1F` was 106 to 108 °C.
Regarding `O=C(NS(=O)(=O)c1ccccc1-c1ccccc1)Oc1ccccc1`, the melting point fell in the range of 114 to 117 °C.
In turn, `COn1c(C)nc2c(NCc3c(C)cccc3C)cc(C(=O)O)cc21` came in with a melting point of 248 to 249 °C.
Under `CNC(=O)Oc1c(C)ccc2c1CC(C)C2(C)C` (configuration not stated) stands 110 °C; under `Cc1nc(C#N)c2n1-c1ccc(Cl)cc1C(c1ccccc1)=NC2`, 228 to 229 °C.
For the compound `CCOC(=O)C1C(=O)Cc2ccccc21` (configuration not stated), the melting point fell in the range of 58 to 61 °C.
Under `Cc1onc(-c2ccc(Cl)cc2)c1CCC(=O)O` stands 187 to 188 °C.
Regarding `CCOc1ccc2c(c1)n(C1CCCCC1)c(=O)n2S(=O)(=O)c1ccc(C(=O)NC(C)(C)CC(C)(C)C)cc1OC`, the melting point was 180 °C.
Compound `Cn1c2ccccc2c2sc3c(C=O)cccc3c21` displayed a melting point of 128 to 130 °C.
Take `CC12CCC3c4ccc(O)cc4CCC3C1CCC2=CCl` (configuration not stated): the melting point was in the range of 130 to 133 °C.
Under `FCCOc1ccc(COCc2ccc(Cl)cc2)cc1` stands 43 to 43.7 °C; under `O=C(NCCCC1CC1)c1ccc(N2CCC(N3C(=O)C(F)(F)c4ccccc43)CC2)nn1`, 51 to 53 °C.
Under `CCCNC(=O)C(C)Cc1ccc2c(CCC)cn(Cc3ccc(C(=O)O)cc3OC)c2c1` (configuration not stated) stands 90 to 98 °C; under `CCOC(=O)CCCCOc1ccc([N+](=O)[O-])c(C=C2NC(=O)NC2=O)c1`, 127 to 129 °C.
Under `Nc1nccnc1C=O` stands 110 to 114 °C; under `Cc1ccnc(-c2ccc(C)c(-c3ccccc3)n2)n1`, 105 °C.
For `Oc1cc(-c2ccccc2)cc(-c2ccccc2)c1`, the melting point amounted to 97 °C.
In the case of `c1cc2ccc3occc3c2[nH]1`, the melting point lay within 141 to 144 °C.
For the compound `CN1CC(=O)Nc2ccsc2C1=O`, the melting point is 270 to 272 °C.
The compound `CCOC(=O)CCCNC(=O)c1nn(C2CCCCO2)cc1NC(=O)c1ccccn1` (configuration not stated) yielded a melting point of 114 to 115 °C.
Take `Nc1ccc2ccc(N3CCCC3)nc2n1`: the melting point stood at 251 °C.
With `CC(C)(C)[Si](C)(C)Oc1ccc(CON2C(=O)c3ccccc3C2=O)cc1`, the melting point lay within 76 to 77 °C.
Under `CC(C)[C@H](NC(=O)N(C)Cc1nc2ccccc2[nH]1)C(=O)N[C@@H](Cc1ccccc1)C[C@H](O)[C@H](Cc1ccccc1)NC(=O)OCc1cccnc1` stands 97 to 100 °C; under `CSc1ncc2cc(C)c(N)nc2n1`, 268 to 270 °C; under `O=[N+]([O-])c1ccccc1N1CCc2ccccc21`, 62 to 64 °C.
As to `O=C(Nc1ccc(F)c(C(F)(F)F)c1)N1COc2cc(OCc3ccccc3)ccc21`, the melting point is 144 to 146 °C.
Under `NC(=O)c1cc2cc(OCC(O)CCl)ccc2o1` (configuration not stated) stands 136 to 138 °C; under `CC(C)(C)OC(=O)c1ccc([N+](=O)[O-])c(OCCOc2cc(C(=O)OC(C)(C)C)ccc2[N+](=O)[O-])c1`, 155 to 157 °C.
In turn, `O=C(NCCO[N+](=O)[O-])Oc1ccccc1` displayed a melting point of 61 to 62 °C.
The compound `CC1(C)C(=O)N(c2ccc(C#N)c(C(F)(F)F)c2)C(=O)N1CCCC(=O)O` displayed a melting point of 179 to 180 °C.
`NNc1nccc(-c2ccc(OC3CCOCC3)c(Cl)c2)c1Cl` yielded a melting point of 173 °C.
`OC1(C2CC2)CSC(=S)N1c1ccccn1` (configuration not stated) yielded a melting point of 95 °C.
`COc1ccc(CCNc2nccc(-c3cccc(NC(=O)CCN(C)C)c3)n2)cc1OC` registered a melting point of 107 to 108 °C.

Values taken from a melting point compilation (Tetko et al.; mined from patent text by program, amines drawn as free bases though some values may be those of a salt).
